According to patent US20230235301A1, “Compounds and Methods for Treating, Ameliorating, or Preventing Herpes Ocular Keratitis” (THE TRUSTEES OF THE UNIVERSITY OF PENNSYLVANIA, priority 2020, published 2023):
Positions of bridges follow the written chain, without caps; N, C: chain ends. Non-standard residues stand in square brackets, D forms with d. Residues, ends and D or L forms follow the SMILES beside them. No end group written: not given here. R8 = C=CCCCCCC[C@@](C)(N)C(=O)O; S5 = C=CCCC[C@](C)(N)C(=O)O

Assays:
[1] = system: Vero cells; assay: Cytotoxicity observed in the plaque reduction assays; type: cell-based, African green monkey
Description: (§1) Cells with ~90% confluence in 48-well plates were infected by absorbing virus (~100 PFU/well) for 1 h in 100 µL growth medium followed by adding 200 µL culture medium containing DMSO vehicle or serially diluted peptides or Acyclovir (Tocris Bioscience-Fisher Scientific) to each well of the plate. DMSO was maintained at 1% throughout the treatment. Cells were subsequently fixed and stained with 300 µL PBS containing 4% formaldehyde and 0.2% crystal violet overnight at room temperature. HSV-1 plaques were quantified at ~55 h post-infection of Vero cells. VV (WR strain) infection of BSC-1 cells was analyzed for plaque formation after 24 h. The plaque reduction assays were performed in duplicate and independently repeated twice. Cells were stained, and plaques counted under a dissecting microscope. Data were plotted on the GraphPad Prism.
Cellular cytotoxicity of the N-terminal substituted stapled peptides was also assessed. S-pep7A caused observable cell death at 50 µM in the plaque assays.

[2] = system: HSV-1; assay: microbe, parasite or virus in culture; type: cell-based; settings: 1 h
Description: as §1
Standard viral plaque reduction assays were conducted in Vero cells to determine if any of the five stapled peptides (S-pep1/3/4/7/8) that were able to block processive DNA synthesis, could also block HSV-1 infection. To minimize possible interference of HSV-1 cell attachment and entry by the peptides, cells were first infected by absorbing the virus for 1 h, followed by treatment with peptides at serial dilutions. […] The EC50 values of both S-pep3 and S-pep8 were approximately 100 µM (FIG. 15C and FIG. 15F). Additionally, S-pep4 was toxic at 12.5 µM, which precluded further optimization.

[3] = system: HSV-1 viral DNA (UL42 gene); assay: HSV-1 DNA replication in infected Vero cells (UL42 gene PCR); type: cell-based
Description: Confluent Vero cells in 48-well plates were infected by absorbing 10^5 PFU of HSV-1 (MOI ~1) for 1 h in 100 µL of DMEM medium containing 5% FBS. Unabsorbed virus was removed by washing the wells 4 times with PBS. Cells were then treated with S-pep7B (SEQ ID NO:32) peptide in triplicate at different dilutions in 300 µL growth medium containing 1% DMSO. At 4 h post-treatment, cells of each triplicate treatment were combined and lysed with 20 mM Tris buffer (pH 7.5) containing 20 mM EDTA, 0.5% SDS, and 0.5 mg/mL proteinase K. Total DNA was then prepared from the lysed cells with phenol/chloroform extraction and ethanol precipitation, and used for UL42 gene amplification by PCR using the primers described above for plasmid construction. After agarose gel electrophoresis, UL42 DNA levels were quantitated using an image capture and analysis system (G:Box Chemi HR, Syngene) and normalized to that of the cellular house-keeping gene GAPDH (glyceraldehyde-3-phosphate dehydrogenase), which was amplified using primers (forward: 5′-[…]-3′ (SEQ ID NO:55), and reverse: 5′-[…]-3′) (SEQ ID NO:56). The assays were independently repeated twice.
Experiments were subsequently performed to determine if the HSV-1 antiviral activity of S-pep7B was specifically due to the inhibition of viral DNA replication. […]

[4] = system: vaccinia virus (VV, WR strain); type: cell-based; settings: BSC-1 cells, plaques after 24 h
[5] = ATP-based cytotoxicity in human primary corneal epithelial cells; type: cell-based; settings: read-out: CC50 by ATP measurement
Description: (§2) Cells were grown in 96-well plates to ~80% confluence and treated with peptides at different concentrations in 150 µL growth medium containing 1% DMSO. At 24 h post-treatment, 100 µL of the culture medium was used for the lactate dehydrogenase (LDH) cytotoxicity assay. In addition, the cells from the same treatment were assessed with an ATP-based cell viability assay. Briefly, after the growth medium was completely removed, the cells were lysed in 100 µL of 1% Triton X-100 in PBS per well at room temperature. After 10 min, 5 µL of lysate was used for ATP-based luciferase/luminescence assay according to the manufacturer’s protocol (Invitrogen, USA). The assays were performed in triplicate and independently repeated twice.

[6] = Cytotoxicity and cell viability assays (ATP content, LDH leakage) in Vero cells; type: cell-based; settings: African green monkey, 24 h treatment
Description: as §2

[7] = system: HSV-1; assay: HSV-1 infection of human 3D organotypic corneal culture; type: cell-based; settings: 25 µM, 5 days treatment, 3D organotypic corneal tissue
Excerpt: Cultures were assembled with human dermal fibroblasts isolated from newborn foreskins and primary human corneal epithelial cells isolated from unused sclerolimbal rings from corneal transplants. After three weeks, organotypic cultures with differentiated corneal epithelial cells overlaying a layer of fibroblasts are established, reproducing the organization of the anterior corneal surface (FIG. 23A).
The assembled 3D organotypic corneal culture was infected with HSV-1 by gently abrading the surface and topically applying 10^6 PFU/mL of HSV-1. After 1 h, unabsorbed virus was removed, and the culture was incubated in medium containing 25 µM S-pep7B in 0.5% DMSO. Treatment occurred over a period of 5 days, in which the medium containing S-pep7B was refreshed every other day. The corneal tissues were examined microscopically each day. At the end of the treatment period, the 3D tissue was cut in half, using the first half to measure the virus titer by plaque assay and the other half for histological examination.

[8] = biological target: T1, HSV-1 Processivity Factor (UL42) (HSV-1 (strain KOS), UniProt P10226 1-488); assay: cell-based or functional assay
T1 sequence: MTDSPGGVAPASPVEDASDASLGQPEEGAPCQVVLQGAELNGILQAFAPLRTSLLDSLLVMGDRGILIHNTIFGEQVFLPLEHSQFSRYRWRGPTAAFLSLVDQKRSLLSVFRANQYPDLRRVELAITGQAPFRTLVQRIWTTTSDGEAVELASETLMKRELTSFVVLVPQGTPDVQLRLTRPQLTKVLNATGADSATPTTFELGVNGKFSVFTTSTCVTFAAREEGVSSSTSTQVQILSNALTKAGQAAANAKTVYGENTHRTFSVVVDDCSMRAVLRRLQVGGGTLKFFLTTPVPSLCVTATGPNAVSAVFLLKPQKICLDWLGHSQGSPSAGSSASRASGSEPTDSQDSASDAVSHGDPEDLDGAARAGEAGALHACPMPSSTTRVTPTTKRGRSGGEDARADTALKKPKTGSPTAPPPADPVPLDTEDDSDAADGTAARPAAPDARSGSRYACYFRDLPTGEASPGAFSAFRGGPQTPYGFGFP

Molecule: CC(=O)N[C@@H](CCCNC(=N)N)C(=O)N[C@@H](CCCNC(=N)N)C(=O)N[C@@]1(C)CCCC=CCCCCCC[C@](C)(C(=O)N[C@@H](CC(C)C)C(=O)N[C@@H](C)C(=O)O)NC(=O)[C@H](CC(=O)O)NC(=O)[C@H](Cc2ccccc2)NC(=O)[C@H](C)NC(=O)[C@H](CCCNC(=N)N)NC(=O)[C@H](Cc2c[nH]cn2)NC(=O)[C@H](CC(C)C)NC1=O [S-pep4, Ac-RRXLHRAFDZLA] (Ac-RR[S5]LHRAFD[R8]LA-OH; staple 3-10; C-terminus assumed)
- concentration at which toxicity / cell death was observed in the plaque assays [1]: 12.5 µM

Molecule: CC(=O)N[C@H](C(=O)N[C@H](C(=O)N[C@@H](CCCNC(=N)N)C(=O)N[C@@H](CCCNC(=N)N)C(=O)N[C@@]1(C)CCCC=CCCC[C@@](C)(C(=O)N[C@@H](Cc2ccccc2)C(=O)N[C@@H](CC(=O)O)C(=O)N[C@H](C(=O)N[C@@H](CC(C)C)C(=O)N[C@@H](C)C(=O)O)[C@@H](C)O)NC(=O)[C@H](CCCNC(=N)N)NC(=O)[C@H](Cc2c[nH]cn2)NC(=O)[C@H](CC(C)C)NC1=O)[C@@H](C)O)C(C)C [S-pep7A, Ac-VTRRXLHRXFDTLA] (Ac-VTRR[S5]LHR[S5]FDTLA-OH; staple 5-9; C-terminus assumed)
- concentration at which toxicity / cell death was observed in the plaque assays [1]: 50 µM
- EC50 [2]: 9.6 µM

Molecule: CC(=O)N[C@H](C(=O)N[C@H](C(=O)N[C@H](C(=O)N[C@@H](CCCNC(=N)N)C(=O)N[C@@H](CCCNC(=N)N)C(=O)N[C@@]1(C)CCCC=CCCC[C@@](C)(C(=O)N[C@@H](Cc2ccccc2)C(=O)N[C@@H](CC(=O)O)C(=O)N[C@H](C(=O)N[C@@H](CC(C)C)C(=O)N[C@@H](C)C(=O)O)[C@@H](C)O)NC(=O)[C@H](CCCNC(=N)N)NC(=O)[C@H](Cc2c[nH]cn2)NC(=O)[C@H](CC(C)C)NC1=O)[C@@H](C)O)C(C)C)C(C)C [S-pep7B, Ac-VVTRRXLHRXFDTLA] (Ac-VVTRR[S5]LHR[S5]FDTLA-OH; staple 6-10; C-terminus assumed)
- concentration at which toxicity / cell death was observed in the plaque assays [1]: no visible cytotoxicity
- viral DNA level relative to time point 0 h ([3]; 50 µM, 4 h post-treatment): completely suppressed
- UL42 DNA levels in infected cells ([3]; MOI ~1, 4 h post-treatment, increasing concentrations, normalized to GAPDH): greatly reduced
- inhibition of VV infection of cells [4]: did not inhibit
- EC50 [2]: 9.8 µM
- CC50 at 24 h [5]: 31.2 µM
- CC50 at 24 h ([6]; read-out: CC50, LDH leakage): 126 µM
- CC50 at 24 h ([6]; read-out: CC50, intracellular ATP content): 114 µM
- HSV-1 structural gB protein (immunostaining) [7]: complete absence
- nuclear morphology (DAPI staining) [7]: unremarkable nuclear morphology

Molecule: CC(=O)N[C@@H](CCCNC(=N)N)C(=O)N[C@H](C(=O)N[C@@H](CCCNC(=N)N)C(=O)N[C@@H](CCCNC(=N)N)C(=O)N[C@@]1(C)CCCC=CCCC[C@@](C)(C(=O)N[C@@H](Cc2ccccc2)C(=O)N[C@@H](CC(=O)O)C(=O)N[C@H](C(=O)N[C@@H](CC(C)C)C(=O)N[C@@H](C)C(=O)O)[C@@H](C)O)NC(=O)[C@H](CCCNC(=N)N)NC(=O)[C@H](Cc2c[nH]cn2)NC(=O)[C@H](CC(C)C)NC1=O)[C@@H](C)O [S-pep7C, Ac-RTRRXLHRXFDTLA] (Ac-RTRR[S5]LHR[S5]FDTLA-OH; staple 5-9; C-terminus assumed)
- concentration at which toxicity / cell death was observed in the plaque assays [1]: 5 µM

Molecule: CC(=O)N[C@@H](CCCNC(=N)N)C(=O)N[C@@H](CCCNC(=N)N)C(=O)N[C@H](C(=O)N[C@@H](CCCNC(=N)N)C(=O)N[C@@H](CCCNC(=N)N)C(=O)N[C@@]1(C)CCCC=CCCC[C@@](C)(C(=O)N[C@@H](Cc2ccccc2)C(=O)N[C@@H](CC(=O)O)C(=O)N[C@H](C(=O)N[C@@H](CC(C)C)C(=O)N[C@@H](C)C(=O)O)[C@@H](C)O)NC(=O)[C@H](CCCNC(=N)N)NC(=O)[C@H](Cc2c[nH]cn2)NC(=O)[C@H](CC(C)C)NC1=O)[C@@H](C)O [S-pep7D, Ac-RRTRRXLHRXFDTLA] (Ac-RRTRR[S5]LHR[S5]FDTLA-OH; staple 6-10; C-terminus assumed)
- concentration at which toxicity / cell death was observed in the plaque assays [1]: 5 µM

B1: Native peptide (N-pep) (peptide)
peptide: Ac-ETRRMLHRAFDTLA
- IC50 of in vitro processive DNA synthesis directed by recombinant UL30 and UL42 [8]: > 200 µM
